{"source": "paper PMC12336439", "about": "(Archiv Der Pharmazie, 2025)", "key": {"USP7 [1]": {"molecular_target": "T1, USP7 (Homo sapiens, UniProt Q93009)", "T1 construct": "USP7 catalytic domain (USP7CD) (208‐560); made in house", "T1 sequence (Q93009 with tags, fused parts or gaps)": "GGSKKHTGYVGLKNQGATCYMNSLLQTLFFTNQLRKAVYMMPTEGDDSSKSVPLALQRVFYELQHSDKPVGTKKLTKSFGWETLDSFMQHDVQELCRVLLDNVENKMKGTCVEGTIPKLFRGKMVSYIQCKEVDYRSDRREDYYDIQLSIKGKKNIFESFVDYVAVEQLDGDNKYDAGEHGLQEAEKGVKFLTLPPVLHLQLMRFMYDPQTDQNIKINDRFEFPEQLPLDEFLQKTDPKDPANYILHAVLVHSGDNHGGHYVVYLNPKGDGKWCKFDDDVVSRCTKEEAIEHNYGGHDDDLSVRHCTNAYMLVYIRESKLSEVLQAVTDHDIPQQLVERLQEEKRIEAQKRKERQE", "experiment": "Differential scanning fluorimetry (DSF), melting temperature shift of USP7", "format": "binding", "conditions": "8 µM protein, 250 µM compound (1:31.25)", "from_the_text": "The influence of the synthesized compounds on the melting temperature (T m) of USP7 and its mutant USP7asoc (active site only cysteine) was investigated by DSF. USP7asoc only retains the catalytic Cys223 while all the other six cysteines are mutated to serine. DSF was selected for initial assessment since it is an efficient and rapid primary screening method readily available to our lab.\nAn important consideration when assessing covalent inhibitors is the time dependence of covalent target occupancy and thus potency, which is determined by the reaction kinetics of the covalent binding event. To allow for drawing conclusions on compounds with slower reaction kinetics, incubation times of 30 min, 4 h, and 24 h at 20°C were chosen for the DSF screen with USP7 (Table 1 and Figures 2 and 3). The threshold at which compounds were considered (de‐)stabilizers was defined at 0.5°C. In parallel, the intrinsic reactivity of a set of representative compounds was evaluated in a glutathione reactivity assay. […] Data obtained from the GSH reactivity studies are shown in Supporting Information S2: Table S2.1 and Figures S2.1–2.3.\nThe melting temperatures of USP7 and USP7asoc in the presence or absence of fragments were determined by DSF on a Qiagen Rotor‐Q Model‐5‐Plex HRM real‐time PCR instrument (Qiagen, Hilden, Germany). SYPRO Orange (Life Technologies Corporation, Eugene, OR, USA) was used as a fluorescent dye at a final concentration of 5x. The protein concentration was 8 µM, and the final compound concentration was 250 µM, corresponding to a protein‐to‐compound ratio of 1:31.25. All compounds were dissolved in dimethyl sulfoxide (DMSO) and the proteins in Tris buffer (25 mM Tris pH 8.0, 150 mM NaCl, 5 mM TCEP, 5% (v/v) DMSO). All measurements were performed after 30 min, 4 h, and 24 h of incubation and at least in triplicate. DSF experiments were carried out with a constant heating rate of 270°C/h. The temperature was ramped from 28°C to 60°C–70°C with excitation and emission filters set at 470 nm and 610 nm, respectively. The melting temperatures (T m) of USP7 and USP7asoc were determined from the maxima of the first derivatives of the melting curves in OriginPro2020 (OriginLab, Northampton, MA, USA). The ∆T m was calculated by subtraction of the T m of the protein sample with pure DMSO from the T m of the protein sample mixed with compound. Error propagation was used to average multiple runs for a compound. A compound was considered to be a hit if the shift in the ∆T m was at least 0.50°C [55]."}, "[2]": {"molecular_target": "T2, USP7asoc (active site only cysteine) (Homo sapiens, UniProt Q93009, C300S/C315S/C334S/C478S/C488S/C510S)", "T2 construct": "(208‐560, C300/315/334/448/478/510S); made in house", "T2 sequence (Q93009 with tags, fused parts or gaps C300S/C315S/C334S/C478S/C488S/C510S)": "as the sequence (Q93009 with tags, fused parts or gaps) above, with C96S, C111S, C130S, C274S, C284S, C306S counted along it", "experiment": "Differential scanning fluorimetry (DSF), melting temperature shift of USP7asoc mutant", "format": "binding", "conditions": "8 µM protein, 250 µM compound (1:31.25)", "protocol": "USP7asoc only retains the catalytic Cys223 while all the other six cysteines are mutated to serine. DSF was selected for initial assessment since it is an efficient and rapid primary screening method readily available to our lab. […] An important consideration when assessing covalent inhibitors is the time dependence of covalent target occupancy and thus potency, which is determined by the reaction kinetics of the covalent binding event. To allow for drawing conclusions on compounds with slower reaction kinetics, incubation times of 30 min, 4 h, and 24 h at 20°C were chosen for the DSF screen with USP7 (Table 1 and Figures 2 and 3). The threshold at which compounds were considered (de‐)stabilizers was defined at 0.5°C. In parallel, the intrinsic reactivity of a set of representative compounds was evaluated in a glutathione reactivity assay. […] The expression and purification of USP7 catalytic domain (USP7CD) (208‐560) and USP7asoc (active site only cysteine) by using a pET24a(+)_HLT_USP7 construct were performed as previously described. […] For the USP7asoc, six of the seven cysteines are mutated to serines (208‐560, C300/315/334/448/478/510S). All utilized protein sequences are depicted in Supporting Information S2: Table S.3.1. The melting temperatures of USP7 and USP7asoc in the presence or absence of fragments were determined by DSF on a Qiagen Rotor‐Q Model‐5‐Plex HRM real‐time PCR instrument (Qiagen, Hilden, Germany). SYPRO Orange (Life Technologies Corporation, Eugene, OR, USA) was used as a fluorescent dye at a final concentration of 5x. The protein concentration was 8 µM, and the final compound concentration was 250 µM, corresponding to a protein‐to‐compound ratio of 1:31.25. All compounds were dissolved in dimethyl sulfoxide (DMSO) and the proteins in Tris buffer (25 mM Tris pH 8.0, 150 mM NaCl, 5 mM TCEP, 5% (v/v) DMSO). All measurements were performed after 30 min, 4 h, and 24 h of incubation and at least in triplicate. DSF experiments were carried out with a constant heating rate of 270°C/h. The temperature was ramped from 28°C to 60°C–70°C with excitation and emission filters set at 470 nm and 610 nm, respectively. The melting temperatures (T m) of USP7 and USP7asoc were determined from the maxima of the first derivatives of the melting curves in OriginPro2020 (OriginLab, Northampton, MA, USA). The ∆T m was calculated by subtraction of the T m of the protein sample with pure DMSO from the T m of the protein sample mixed with compound. Error propagation was used to average multiple runs for a compound. A compound was considered to be a hit if the shift in the ∆T m was at least 0.50°C [55]."}, "[3]": {"molecular_target": "T3, USP7cd (USP7 catalytic domain) (Homo sapiens, UniProt Q93009)", "T3 construct": "USP7 catalytic domain (USP7CD) (208‐560); made in house", "T3 sequence (Q93009 with tags, fused parts or gaps)": "as the sequence (Q93009 with tags, fused parts or gaps) above", "experiment": "Ub-AMC enzyme activity assay, IC50 determination", "format": "biochemical", "conditions": "10 nM USP7cd, 500 nM Ub-AMC, 24 h pre-incubation at 20°C", "protocol": "Therefore, USP7 was incubated for 24 h with ten different compound concentrations, and IC50 values were then obtained with a fluorescent DUB substrate (Ub‐AMC) (Figure 9A–F). The pre‐incubation times were chosen to account for the slow covalent binding kinetics observed in the previous experiments.\nThe cleavage activity of USP7cd in the presence or absence of inhibitors was measured using Ubiquitin‐Aminomethylcoumarin (Ub‐AMC) (Enzo Life Sciences GmbH, Lörrach, Germany) as a fluorogenic substrate. The fluorescence was monitored using the CLARIOstar plate reader (BMG Labtech GmbH, Ortenberg, Germany) at 25°C at 360 nm excitation and 460 nm emission wavelengths. […] Each measurement was performed at least twice in duplicate. […] Ub‐AMC was added to a final concentration of 500 nM, and the fluorescence was measured after 1 h. The normalized dose‐response semi‐logarithmic curves were fitted using OriginPro2021 and the four‐parameter logistic function.\nDifferent concentrations of compounds were pre-incubated with USP7 for 24 h at 20 °C in a rotating shaker in 25 mM Tris pH 8.0, 150mM NaCl, 5 mM TCEP supplemented with 0.2 mg/mL bovine serum albumin (BSA). Fluorescence was measured after 1 h of the addition of Ub-AMC. The dose response semi-logarithmic curves were fitted using OriginPro2021 and the four-parameter logistic function."}, "USP7 [4]": {"molecular_target": "T1, USP7", "parameters": "method as in PMID 40165995", "conditions": "hit from earlier screen of covalent kinase inhibitor library; cited from earlier work"}, "USP7 [5]": {"molecular_target": "T1, USP7", "parameters": "method as in PMID 40165995", "conditions": "24 h incubation at 20°C, ratio 1:31.25; spectra reported previously; cited from earlier work"}, "USP7asoc": {"molecular_target": "T4, USP7asoc (Homo sapiens, UniProt Q93009, C300S/C315S/C334S/C478S/C488S/C510S)", "T4 construct": "(208‐560, C300/315/334/448/478/510S); made in house", "T4 sequence (Q93009 with tags, fused parts or gaps C300S/C315S/C334S/C478S/C488S/C510S)": "as the sequence (Q93009 with tags, fused parts or gaps) above, with C96S, C111S, C130S, C274S, C284S, C306S counted along it", "parameters": "method as in PMID 40165995", "conditions": "24 h incubation at 20°C, ratio 1:31.25; spectra reported previously; cited from earlier work"}}, "note": "Several values for one entry are separate records, joined by “and”; a condition that tells them apart may be missing. Equal values may be shown once. Read-outs that look alike come from different tables or passages of the source.", "data": [{"compound": "Cn1cc(-c2cccc3cnc(Nc4nc(F)ccc4[N+](=O)[O-])cc23)cn1", "note": "[7a, N‐(6‐Fluoro‐3‐nitropyridin‐2‐yl)‐5‐(1‐methyl‐1H‐pyrazol‐4‐yl)isoquinolin‐3‐amine]", "values": [{"measurement": "∆T m ± SD USP7", "setting": "USP7 [1]; 30 min incubation at 20°C", "result": "–0.13 ± 0.08 °C"}, {"measurement": "∆T m ± SD USP7", "setting": "USP7 [1]; 4 h incubation at 20°C", "result": "–0.23 ± 0.06 °C"}, {"measurement": "∆T m ± SD USP7asoc", "setting": "[2]; 30 min incubation at 20°C", "result": "–0.10 ± 0.09 °C"}, {"measurement": "∆T m ± SD USP7asoc", "setting": "[2]; 4 h incubation at 20°C", "result": "–0.25 ± 0.09 °C"}, {"measurement": "IC50", "setting": "[3]; read-out: IC50 USP7cd", "result": "43.3 µM and 43 µM"}, {"measurement": "IC50", "setting": "[3]; supplement table, read-out: Biological Activity (IC50)", "result": "48.2 ± 6.89", "unit": "µM"}, {"measurement": "temperature decrease with USP7 in DSF", "setting": "USP7 [4]", "result": "–4 °C"}, {"measurement": "protein species in deconvoluted mass spectrum of USP7", "setting": "USP7 [5]", "result": "mono‐arylated protein species as the main peak"}, {"measurement": "protein species in deconvoluted mass spectrum of USP7asoc", "setting": "USP7asoc", "result": "single covalent modification as the main peak"}]}]}
